# According to US20180042882A1, “C16:1n7-PALMITOLEATE AND DERIVATIVES THEREOF FOR TREATING OBESITY, PROMOTING WEIGHT LOSS, AND SUPPORTING WEIGHT MANAGEMENT” (Tersus Life Sciences, LLC, priority 2015, published 2018):
# Experiments:
# bovine adipocytes [1] = assay: Fatty acid composition of bovine adipocyte cultures with exogenous palmitoleic acid (GLC); assay type: cell-based; conditions: P<0.05
# From the text: (§1) Bovine adipocyte cultures were used to determine if addition of exogenous palmitoleic acid (C16:1n7) altered lipogenesis in vitro (Burns et al., 2012a). Adipocytes were harvested from the bovine cultures on day 6 and day 12 and analyzed using GLC and qPCR. […] In contrast, increasing concentrations of palmitoleic acid led to a decrease in palmitic acid (C16:0), stearic acid (C18:0), and oleic acid (C18:1) levels (P<0.05). FIG. 2 illustrates de novo lipogenesis and β-oxidation in an adipocyte after exogenous palmitoleic acid addition.
# (§2) The desaturation ratio of C18:1 cis-9/C18:0 decreased (P<0.05) in response to increasing concentrations of palmitoleic acid, which was consistent with the observed decrease in SCD-1 mRNA expression.
# ELOVL6 = assay: qPCR mRNA expression in bovine adipocyte cultures; assay type: cell-based; conditions: compared to untreated control cells; P<0.05
# From the text: as §1, §2
# FASN = assay: qPCR mRNA expression in bovine adipocyte cultures; assay type: cell-based; conditions: compared to untreated control cells; P<0.05
# From the text: as §1, §2
# SCD-1 = assay: qPCR mRNA expression in bovine adipocyte cultures; assay type: cell-based; conditions: compared to untreated control cells; P<0.05
# From the text: as §1, §2
# bovine adipocytes [2] = assay: Rate of lipogenesis with [1-13C]acetate in bovine adipocytes; assay type: cell-based; conditions: 2.5 mM [1-13C]acetate on day 6; compared to controls
# From the text: as §2
# [3] = test system: Acyl-CoA dehydrogenase, long chain (ACADL); assay: Expression of fatty acid oxidation genes in bovine adipocytes; assay type: cell-based; conditions: normalized to EIF3K and UXT; P≦0.07
# From the text: (§3) The effect of palmitoleic acid supplementation on fatty acid oxidation in bovine adipocytes (see Kadegowda et al., 2011a) was examined by measuring the expression levels of Acyl-Coenzyme A oxidase 2 (ACOX2), Acyl-CoA dehydrogenase, long chain (ACADL), Phytanoyl-CoA 2-hydroxylase (PHYH), Caveolini (CAV1) and Adipose differentiation-related protein (ADEP). The geometric mean of Eukaryotic translation initiation factor 3, subunit k (EIF3K) and Ubiquitously expressed transcript (UXT) was used for normalization.
# [4] = test system: Phytanoyl-CoA 2-hydroxylase (PHYH); assay: as above; assay type: cell-based; conditions: normalized to EIF3K and UXT
# From the text: as §3
# bovine adipocytes [5] = assay: Fatty acid levels and desaturation (13C18:0, GLC-MS) in fatty acid supplemented bovine adipocytes; assay type: cell-based; conditions: P<0.05
# Description: In addition, cells were incubated with ^13C2 and ^13C18:0 on day 6 to estimate lipogenic and desaturation rates using GLC-MS.
# CTP-1 = assay: Enzymes involved in β-oxidation after exogenous palmitoleic acid; assay type: cell-based, bovine; conditions: addition of exogenous palmitoleic acid
# From the text: As such, C16:1n7-palmitoleate, derivatives thereof, pharmaceutically acceptable salts thereof, or a combination thereof, are useful in methods for reducing adipocyte hypertrophy and excess adipose tissue deposition.
# [6] = Infusion of 13C16:1n7 in lambs, uptake and utilization; assay type: in vivo; conditions: 5 mg/kg level, intravenous infusion
# Description: This level of palmitoleic acid supplementation was selected based on previous experiments where lambs were infused with varying levels (0, 2, or 5 mg/kg) of ^13C16:1n7 to assess uptake and utilization in adipose tissues. […] This 5 mg/kg level is based on intravenous infusion levels and thus is adjusted for estimated ruminal bypass and intestinal absorption rates for dietary monounsaturated fatty acids for this oral feeding study.
# [7] = increasing concentrations of palmitoleic acid (50, 150 and 300 μM), day 6 and day 12
# [8] = increasing concentrations of palmitoleic acid
structure (smiles),measurement,setting,value
CCCCCC/C=C\CCCCCCCC(=O)O [palmitoleic acid],desaturation ratio of C18:1 cis-9/C18:0,bovine adipocytes [1]; in response to increasing concentrations of palmitoleic acid,decreased
same,cis-11 vaccenic acid (C18:1c11) levels in adipocytes,bovine adipocytes [1]; [7],linear increase
same,cis-13 eicosenoic acid (C20:1c13) levels in adipocytes,bovine adipocytes [1]; [7],linear increase
same,total fatty acid levels in adipocytes,bovine adipocytes [1]; [7],linear increase
same,Palmitoleic acid levels in adipocytes,"bovine adipocytes [1]; increasing concentrations of palmitoleic acid (50, 150 and 300 μM), harvested day 6 and day 12",linear increase
same,oleic acid (C18:1) levels in adipocytes,bovine adipocytes [1]; [8],decrease
same,palmitic acid (C16:0) levels in adipocytes,bovine adipocytes [1]; [8],decrease
same,stearic acid (C18:0) levels in adipocytes,bovine adipocytes [1]; [8],decrease
same,ELOVL6 mRNA expression levels,ELOVL6,reduction
same,FASN mRNA expression levels,FASN,reduction
same,SCD-1 mRNA expression levels,SCD-1,reduction
same,rate of lipogenesis,bovine adipocytes [2],lower rate of lipogenesis
same,increase in ACADL expression,[3],2.36 fold
same,increase in PHYH expression,[4],95.5 fold
same,13C18:1 cis-9 levels,"bovine adipocytes [5]; after 12 h of 13C18:0 incubation, compared with all other treatments",lower
same,C18:1 cis-9/C18:0 ratio,bovine adipocytes [5]; compared with all other treatments,lower
same,C16: levels in supplemented cells,bovine adipocytes [5]; compared with control cells,elevated
same,C18:1 cis-11 levels in supplemented cells,bovine adipocytes [5]; compared with control cells,elevated
same,C20:1 cis-13 levels in supplemented cells,bovine adipocytes [5]; compared with control cells,elevated
same,CTP-1 (enzyme involved in β-oxidation) regulation,CTP-1,upregulates
same,blood glucose levels,[6]; compared to control,altered
same,concentrations of 13C16:1n7 in serum,"[6]; lambs infused with 0, 2, or 5 mg/kg",greatest concentrations
